Assay results published in patent US20180071317A1, “USE OF AGENTS THAT ALTER THE PERITUMORAL ENVIRONMENT FOR THE TREATMENT OF CANCER” (SERVICIO ANDALUZ DE SALUD, priority 2011, published 2018).

Key:
[1] = system: fibroblasts (PHF) co-cultured with tumor cells of human colon adenocarcinoma (SW-403); assay: Marker expression (IHC) in PHF co-cultured with SW-403 tumor cells; format: cell-based; details: co-culture with SW-403; SP 1 μM + antagonist 1 μM; 48 h
Description: All cultures were maintained 48 hours, following which the same cells were included in paraffin blocks for subsequent analysis of the expression of different markers by immunohistochemistry (see Example 1). The primary antibodies used to perform immunohistochemical assays and their concentration are detailed in Example 2. All experiments were carried out sixfold. Analyzed markers in fibroblast cells (stromal cells) were: TGF-α, TGF-β1, TGF-β2, TGF-β3, SPARC, MMP-3, MMP-7, MMP-9, MMP-11, MMP-13 and MMP-14.

[2] = system: fibroblasts (PHF) co-cultured with tumor cells of lung carcinoma (A-427); assay: Marker expression (IHC) in PHF co-cultured with A-427 tumor cells; format: cell-based, human; details: co-culture with A-427 lung carcinoma; SP 1 μM + antagonist 1 μM; 48 h;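 also: cultures grown in human blood plasma from a healthy donor, value is the percentage of fibroblasts positive for each marker, six replicates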
Description: (§4) All cultures were maintained 48 hours, following which the same cells were included in paraffin blocks for subsequent analysis of the expression of different markers by immunohistochemistry (see Example 1). […] All experiments were carried out sixfold. Analyzed markers in fibroblast cells (stromal cells) were: TGF-α, TGF-β1, TGF-β2, TGF-β3, SPARC, MMP-3, MMP-7, MMP-9, MMP-11, MMP-13 and MMP-14.

[3] = system: fibroblasts (PHF) co-cultured with tumor cells of human Edwing sarcoma (MHH-ES-1); assay: Marker expression (IHC) in PHF co-cultured with MHH-ES-1 tumor cells; format: cell-based; details: PHF co-cultured with MHH-ES-1 + SP + NK1 antagonist
Description: as §4

[4] = system: fibroblasts (PHF) co-cultured with human neuroblastoma tumor cells (KELLY); assay: Marker expression (IHC) in PHF co-cultured with KELLY tumor cells; format: cell-based; details: PHF co-cultured with KELLY + SP + NK1 antagonist;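 also: Co-cultures grown on healthy-donor human blood plasma, run in six replicates, value is percentage of fibroblasts positive for each marker, compared with fibroblasts cultured alone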
Description: as §4

[5] = system: fibroblasts (PHF) co-cultivated with tumor cell lymphoblastic leukemia B (SDI); assay: Marker expression (IHC) in PHF co-cultured with SDI tumor cells; format: cell-based, human; details: PHF co-cultivated with SDI + SP + NK1 antagonist
Description: as §4

[6] = system: fibroblasts of tumors produced by human glioma tumor line (GAMG); assay: Marker expression (IHC) in fibroblasts of tumor or peritumoral area, mouse model, GAMG; format: in vivo; details: GAMG tumors in mice, 30 mg/kg/day oral, 7 days
Description: (§1) In vitro tests conducted in Example 5 are now carried out in an experimental model in mice in vivo. […] Subsequently, the expression in fibroblasts tumoral and peritumoral area of molecular markers associated with progression and maintenance of tumors: TGF-α, TGF-β1, TGF-β2, TGF-β3, MMP-7, MMP-11, MMP-14 were analyzed by immunohistochemistry.
(§2) Were injected with 2×10^7 cells tumors (corresponding, in each case to each of the tumor types as specified in Table 9) in 200 of PBS subcutaneously μl. […] Mice were randomized into two groups when the tumors reached a volume of 75 mm^3 One group was treated with non-peptide receptor antagonists NK1 and the other with placebo 200μ1. […] Tumors and samples of non-neoplastic stromal areas remote from the tumor were halved, formalin fixed (4%) and then were included in paraffin blocks for analysis by immunohistochemistry.
(§3) The expression on fibroblast cells obtained in the animal model was analyzed by immunohistochemistry, of the above markers: TGF-α, TGF-β1, TGF-β2, TGF-β3, MMP-7, MMP-1 1, MMP-14MP-14. Tables 32 to 35 depict the type of label used and the average percentage of fibroblasts present in non-tumor areas, tumor and peritumoral (±SD) which were expressing the marker shown in each of the tumor types developed from of the different cell lines used. This process was realized in mice treated with non-peptide antagonists of NK1 receptor and in untreated animals (control).

[7] = system: fibroblasts of tumors produced by tumor cell line of human melanoma (MEL HO); assay: Marker expression (IHC) in fibroblasts of tumor or peritumoral area, mouse model, MEL HO; format: in vivo; details: MEL HO tumors in mice, 30 mg/kg/day oral, 7 days
Description: as §1, §2, §3

[8] = system: tumors from the tumor cell lines of Table 9; assay: Mean tumor volume in nude mice injected subcutaneously with human tumor cells; details: 30 mg/kg/day oral, 7 days

## CC(=O)N1CCN([C@H]2CCN(C(=O)N(C)[C@H](C)c3cc(C(F)(F)F)cc(C(F)(F)F)c3)[C@@H](c3ccc(F)cc3C)C2)CC1 [Casopitant]
[1]
  PHF cells expressing MMP-3: 0%
  PHF cells expressing MMP-7: 0%
  PHF cells expressing MMP-9: 0%
  PHF cells expressing MMP-11: 0%
  PHF cells expressing MMP-13: 0%
  PHF cells expressing MMP-14: 0%
  PHF cells expressing SPARC: 0%
  PHF cells expressing TGF-α: 0%
  PHF cells expressing TGF-β1: 0%
  PHF cells expressing TGF-β2: 0%
  PHF cells expressing TGF-β3: 0%
[2]
  PHF cells expressing MMP-3: 0%
  PHF cells expressing MMP-7: 0%
  PHF cells expressing MMP-9: 0%
  PHF cells expressing MMP-11: 0%
  PHF cells expressing MMP-13: 0%
  PHF cells expressing MMP-14: 0%
  PHF cells expressing SPARC: 0%
  PHF cells expressing TGF-α: 0%
  PHF cells expressing TGF-β1: 0%
  PHF cells expressing TGF-β2: 0%
  PHF cells expressing TGF-β3: 0%
[3]
  cells expressing MMP-3: 0%
  cells expressing MMP-7: 0%
  cells expressing MMP-9: 0%
  cells expressing MMP-11: 0%
  cells expressing MMP-13: 0%
  cells expressing MMP-14: 0%
  cells expressing SPARC: 0%
  cells expressing TGF-α: 0%
  cells expressing TGF-β1: 0%
  cells expressing TGF-β2: 0%
  cells expressing TGF-β3: 0%
[4]
  cells expressing MMP-3: 0%
  cells expressing MMP-7: 0%
  cells expressing MMP-9: 0%
  cells expressing MMP-11: 0%
  cells expressing MMP-13: 0%
  cells expressing MMP-14: 0%
  cells expressing SPARC: 0%
  cells expressing TGF-α: 0%
  cells expressing TGF-β1: 0%
  cells expressing TGF-β2: 0%
  cells expressing TGF-β3: 0%
[5]
  cells expressing MMP-3: 0%
  cells expressing MMP-7: 0%
  cells expressing MMP-9: 0%
  cells expressing MMP-11: 0%
  cells expressing MMP-13: 0%
  cells expressing MMP-14: 0%
  cells expressing SPARC: 0%
  cells expressing TGF-α: 0%
  cells expressing TGF-β1: 0%
  cells expressing TGF-β2: 0%
  cells expressing TGF-β3: 0%
[6]
  fibroblasts expressing MMP-7: 0%
  fibroblasts expressing MMP-11: 0%
  fibroblasts expressing MMP-14: 0%
  fibroblasts expressing TGF-α: 0%
  fibroblasts expressing TGF-β 1: 0%
  fibroblasts expressing TGF-β 2: 0%
  fibroblasts expressing TGF-β 3: 0%
[7]
  fibroblasts expressing MMP-7: 0%
  fibroblasts expressing MMP-11: 0%
  fibroblasts expressing MMP-14: 0%
  fibroblasts expressing TGF-α: 0%
  fibroblasts expressing TGF-β 1: 0%
  fibroblasts expressing TGF-β 2: 0%
  fibroblasts expressing TGF-β 3: 0%
[8]; B lymphoblastic leukemia (peripheral human B lymphoblastoid cells) SD1
  Mean tumor volume: 109 ± 8
[8]; Carcinoma of human non-small cell lung COR-L23
  Mean tumor volume: 119 ± 5
[8]; Carcinoma of human non-small cell lung H-1963
  Mean tumor volume: 97 ± 3
[8]; Carcinoma of human non-small cell lung HCC-44
  Mean tumor volume: 101 ± 8
[8]; Carcinoma of human small cell lung H-209
  Mean tumor volume: 114 ± 7
[8]; Carcinoma of human urinary bladder 5637
  Mean tumor volume: 100 ± 2
[8]; Human B lymphoma BC-1
  Mean tumor volume: 83 ± 11
[8]; Human Burkitt lymphoma CA-46
  Mean tumor volume: 94 ± 9
[8]; Human Fibrosarcoma HT-1080
  Mean tumor volume: 89 ± 4
[8]; Human Hodgkin lymphoma KM-H2
  Mean tumor volume: 86 ± 7
[8]; Human Rhabdomyosarcoma A-204
  Mean tumor volume: 98 ± 5
[8]; Human T-cell leukemia/NK YT
  Mean tumor volume: 102 ± 7
[8]; Human T-lymphoma DERL human Hodgkin 7Linfoma KM-H2
  Mean tumor volume: 97 ± 6
[8]; Human breast adenocarcinoma humano MCF-7
  Mean tumor volume: 86 ± 8
[8]; Human breast carcinoma MDA-MB-468
  Mean tumor volume: 77 ± 9
[8]; Human breast carcinoma MT-3
  Mean tumor volume: 87 ± 12
[8]; Human choriocarcinoma AC-1M32
  Mean tumor volume: 84 ± 1
[8]; Human colon carcinoma SW-403
  Mean tumor volume: 78 ± 7
[8]; Human endometrial carcinoma AN3-CA
  Mean tumor volume: 82 ± 3
[8]; Human endometrial stromal sarcoma ESS-1
  Mean tumor volume: 101 ± 5
[8]; Human folicular thyroid carcinoma TT2609-C02
  Mean tumor volume: 112 ± 5
[8]; Human gastric adenocarcinoma 23132/87
  Mean tumor volume: 83 ± 4
[8]; Human glioma GAMG
  Mean tumor volume: 102 ± 4
[8]; Human lung carcinoma A-427
  Mean tumor volume: 102 ± 8
[8]; Human lung carcinoma DV-90
  Mean tumor volume: 99 ± 5
[8]; Human lymphoblastic leukemia T BE-13
  Mean tumor volume: 101 ± 4
[8]; Human malignant fibrous histiocytoma U-2197
  Mean tumor volume: 107 ± 2
[8]; Human melanoma MEL HO
  Mean tumor volume: 102 ± 9
[8]; Human multiple myeloma COLO-677
  Mean tumor volume: 104 ± 6
[8]; Human neuroblastoma KELLY
  Mean tumor volume: 112 ± 5
[8]; Human neuroblastoma bone marrow SKN-BE 2
  Mean tumor volume: 103 ± 4
[8]; Human osteosarcoma CAL-72
  Mean tumor volume: 106 ± 7
[8]; Human ovarian adenocarcinoma EFO-27
  Mean tumor volume: 88 ± 6
[8]; Human ovarian carcinoma COLO-704
  Mean tumor volume: 97 ± 6
[8]; Human pancretic adenocarcinoma CAPAN-1
  Mean tumor volume: 73 ± 8
[8]; Human pancretic adenocarcinoma PA-TU 8902
  Mean tumor volume: 75 ± 6
[8]; Human papillary thyroid carcinoma metastasizing B-CPAP
  Mean tumor volume: 106 ± 4
[8]; Human prostate carcinoma 22RV1
  Mean tumor volume: 98 ± 4
[8]; Human retinoblastoma WERI-Rb-1
  Mean tumor volume: 101 ± 5
[8]; Human thyroid carcinoma 8505C
  Mean tumor volume: 99 ± 9
[8]; Human uterine cervix carcinoma KB
  Mean tumor volume: 112 ± 1
[8]; Melanoma humano, metástasis en ganglio linfático COLO 858
  Mean tumor volume: 99 ± 5
[8]; Sarcoma human Edwing MHH-ES-1
  Mean tumor volume: 97 ± 9
[8]; Transitional Carcinoma of human urinary bladder RT-4
  Mean tumor volume: 101 ± 3
